Measurements: US7166614B2, “Tetrahydropyranyl cyclopentyl tetrahydroisoquinoline modulators of chemokine receptor activity” (Merck & Co., Inc., priority 2002, dated 2007)

Assays:
[1] = Storage stability at room temperature (air oxidation, LC-MS); type: physicochemical; conditions: stored in a scintillation vial at room temperature for three months; degradation by air oxidation; separation by reverse phase HPLC
Description: Separation by Gilson reverse phase HPLC provided two new products (Example 114 and 115) and 60% of the parent compound recovered. These compounds were analyzed by NMR and LC-MS to determine the structures.

CCR-2 receptor = biological target: T1, CCR-2 receptor (Homo sapiens, UniProt P41597); assay: CCR-2 binding assay (inhibition of 125I-MCP-1 binding); conditions: cis isomer compared with trans isomer, resolved on preparation plate; assay not specified
T1 construct: the endogenous CCR-2 receptor on various cell types including monocytes, THP-1 cells; endogenous in cells; host or cells: monocytes, THP-1 cells (or eukaryotic cells expressing the cloned receptor)
T1 sequence (P41597 whole entry): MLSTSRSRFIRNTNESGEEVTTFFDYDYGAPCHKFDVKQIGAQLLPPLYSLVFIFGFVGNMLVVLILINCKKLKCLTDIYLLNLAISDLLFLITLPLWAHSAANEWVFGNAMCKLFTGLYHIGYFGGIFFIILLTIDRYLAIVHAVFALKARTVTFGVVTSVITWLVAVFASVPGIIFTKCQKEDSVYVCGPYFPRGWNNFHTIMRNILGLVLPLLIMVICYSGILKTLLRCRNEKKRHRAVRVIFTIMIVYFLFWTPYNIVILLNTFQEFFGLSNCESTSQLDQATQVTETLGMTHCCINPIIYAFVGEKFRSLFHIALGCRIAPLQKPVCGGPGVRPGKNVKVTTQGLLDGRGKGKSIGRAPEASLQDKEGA
Description: Receptor affinity in a CCR-2 binding assay was determined by measuring inhibition of ^125I-MCP-1 to the endogenous CCR-2 receptor on various cell types including monocytes, THP-1 cells, or after heterologous expression of the cloned receptor in eukaryotic cells. The cells were suspended in binding buffer (50 mM HEPES, pH 7.2,5 mM MgCl2, 1 mM CaCl2, and 0.50% BSA) with and added to test compound or DMSO and ^125I-MCP-1 at room temperature for 1 h to allow binding. The cells were then collected on GFB filters, washed with 25 mM HEPES buffer containing 500 mM NaCl and cell bound ^125I-MCP-1 was quantified.

Row | parent compound recovered after storage [1] | relative activity of cis vs trans isomer (CCR-2 receptor) | SMILES
1 | 60% | – | CC(C)[C@]1(C(=O)N2CCc3ccc(C(F)(F)F)cc3C2)CC[C@@H](NC2CCOCC2F)C1 (some centres unmarked) [Example 96]
2 | – | more active | CSC1(C(=O)N2CCc3ccc(C(F)(F)F)cc3C2)CC[C@@H](NC2CCOCC2)C1 (some centres unmarked) [Example 3]
